One assay has as its system phosphoBAD (DND-41). Nature of the assay: Level of phosphorylation of Bad by ELISA, DND-41 cell line. The assay is classed as cell-based. Conditions: Homo sapiens, DND41, DND-41 cells, 3 hours at 37° C. On the procedure: (§1) The activity of the molecules is evaluated on the JEKO or DND-41 cell line by measuring the level of phosphorylation of Bad and the total Bad content, via the ELISA technique.
(§2) The JEKO or DND-41 cells are resuspended at a concentration of 500 000 cells per ml. The cells are then diluted in RPMI-1640 medium containing 20% foetal calf serum. 225 μl of cells are placed in a plate. Serial dilutions of the molecules are then performed (8 points, three-fold dilution, range started at 10 mM). Each dilution point is then diluted to 1/100 in medium. Next, 25 μl of each of the concentrations are added to the cells and then incubated for 3 hours at 37° C.
(§3) 100 μl of the cells are transferred into a plate treated with poly-D-Lysine. The plate is then incubated for 5-10 minutes at 37° C. and then centrifuged for 5 minutes at 1500 rpm. A volume of 100 μl of 8% fixing solution (solution of formaldehyde in PBS buffer) is added to each of the wells. After covering with a self-adhesive film and a lid, the plate is incubated for 20 minutes at room temperature and then stored at 4° C. overnight.
(§4) Next, the liquid is removed and two successive washes are performed with washing buffer. 100 μl of quenching buffer are added, followed by incubating for 15 minutes at room temperature. After washing, 100 μl of […] at room temperature. After washing, 50 μl of primary antibody diluted to 1/250 for pBAD (Cell Signaling Cat#5284) and to 1/500 for Bad (MBL Cat#591) are added to each of the plates. Each plate is incubated for 2 hours at room temperature. After two washes, 50 μl of secondary antibody (diluted to 1/16) are added to the pBAD plate (tebu-bio ref; FE-021) and 50 μl of the HRP-conjugated IgG secondary antibody (Santa Cruz Cat #SC-2004; diluted to 1/1000) are added to the Bad plate. Incubation for 1 hour at room temperature is performed. Four washes with the washing solution are performed, followed by three washes with PBS. Finally, 100 μl of the developing solution are added, followed by incubation for 10 minutes. Finally, 100 μl of the quenching solution are added, before reading at 450 nm.
Background: An ELISA detects its analyte on a solid surface through an enzyme-linked reagent.

A further assay deals with EOL-1. Nature of the assay: Cell viability assay (CellTiter-Blue), EOL-1.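 Note: EOL-1 is an acute myeloid eosinophilic leukaemia line not a lymphoma.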 In kind it is cell-based. Particulars: Homo sapiens, EOL1, read-out: EC50 EOL-1 μM (eosinophilic leukaemia), EOL-1 cells, read-out: EC50 EOL-1 μM (lymphoma). An outline of the steps:
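Cells exposed 48, 72 or 96 h (preferably 72 h) to nine 3-fold dilutions, top dose 10 μM or 30 μM. Viability read by resazurin-to-resorufin fluorescence after 4 h CellTiter-Blue; EC50 is concentration giving 50% reduction in viability/proliferative expansion.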
In general terms: The colour change of resazurin is a common sign of viable cells or microbes.

The next assay has as its target PLK1 (Homo sapiens, UniProt P53350). In words: Biochemical results, IC50 PLK1.
The target in another assay is T1, Pim-2 (Homo sapiens, UniProt Q9P1W9).
T1 construct: full-length human recombinant His6-labelled Pim-1, Pim-2 or Pim-3 protein; His6; made in house
In words: TR-FRET assay of Pim kinase activity (phosphorylation of Bad Ser112), Pim-2. The assay is classed as biochemical. Particulars: ATP 40 μM, read-out: IC50 Pim2. Summed up: (§5)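 Full-length His6-tagged human Pim-1, -2 or -3 phosphorylate full-length His6-Bad at 40 μM ATP; phospho-Ser112 detected by TR-FRET (Eu anti-phosphoBad, APC anti-His6), 665/615 nm ratio. Compounds run at 10 concentrations in duplicate, typically top 30 μM; IC50 from 4-parameter logistic fit.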
Background: In TR-FRET formats the signal depends on donor and acceptor labels being close together.

A further assay relates to phosphoBAD (JEKO). In words: Level of phosphorylation of Bad by ELISA, JEKO cell line. The assay is classed as cell-based. Particulars: Homo sapiens, JEKO cells, 3 hours at 37° C. On the procedure: as §1, §2, §3, §4
Another assay relates to MOLM-13. Nature of the assay: Cell viability assay (CellTiter-Blue), MOLM-13. Conditions: Homo sapiens, read-out: EC50 MOLM-13 μM, MOLM-13 cells, read-out: EC50 MOLM-13 μM (myeloma). The assay is classed as cell-based. As for the experimental part: The representative compounds of the invention are also screened as regards their effects on cell proliferation and viability, using a variety of tumoral cell lines of human source, representative of different pathological indications. These cell lines include:
In order to measure the viability, the tumour cells are incubated in 96-well or 384-well format for 48, 72 or 96 hours, preferably 72 hours, with a compound of the invention at dilutions of a factor 3, with, in general, nine doses in total, the highest dose being equal to 10 μM or 30 μM. The cell viability is evaluated by adding CellTiter-Blue® (Promega, Madison, Wis., United States) for 4 hours and endpoint readings are taken using a SpectraMax Genmini EM plate reader (Molecular Devices, Sunnyvale, Calif., United States). The CellTiter-Blue® cell viability assay measures the ability of the cells in culture to reduce resazurin to resorufin, the intensity of the fluorescence signal being directly proportional to the number of live cells. The EC50 represents the concentration of compound that leads to a 50% reduction of the viability/proliferative expansion of the cells.

The next assay has as its system MV4-11. In words: Cell viability assay (CellTiter-Blue), MV4-11. The assay is classed as cell-based. Particulars: Homo sapiens, read-out: EC50 MV4-11 μM (acute myeloid leukemia), MV4-11 cells, read-out: EC50 MV4-11 μM (myeloma). An outline of the steps:
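MOLM-13 or MV4-11 cells incubated 48, 72 or 96 h (preferably 72 h) with nine 3-fold compound dilutions, top dose 10 μM or 30 μM. Viability read by CellTiter-Blue resazurin reduction over 4 h (fluorescence). EC50 is the concentration giving 50% reduction of viability/proliferative expansion.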

For another assay, the target named is CDK1 (Homo sapiens, UniProt P06493). Nature of the assay: Biochemical results, IC50 CDK1.
Another assay addresses T2, Pim-1 (Homo sapiens, UniProt P11309).
T2 construct: full-length human recombinant His6-labelled Pim-1, Pim-2 or Pim-3 protein; His6; made in house
Nature of the assay: TR-FRET assay of Pim kinase activity (phosphorylation of Bad Ser112), Pim-1. Conditions: ATP 40 μM, read-out: IC50 Pim1. In kind it is biochemical. Summed up: as §5

The next assay concerns the target T3, Pim-3 (Homo sapiens, UniProt Q86V86).
T3 construct: full-length human recombinant His6-labelled Pim-1, Pim-2 or Pim-3 protein; His6; made in house
Nature of the assay: TR-FRET assay of Pim kinase activity (phosphorylation of Bad Ser112), Pim-3. In kind it is biochemical. Conditions: ATP 40 μM, read-out: IC50 Pim3. An outline of the steps: as §5

Results on eight compounds are retold here after patent US20120208809A1, “9H-PYRROLO[2,3-B: 5,4-C'] DIPYRIDINE AZACARBOLINE DERIVATIVES, PREPARATION THEREOF, AND THERAPEUTIC USE THEREOF” (SANOFI, priority 2009, published 2012).

Each structure is given as a SMILES string.

In general, IC50 refers to the concentration needed to halve the response being measured. What is called EC50 is the concentration giving half of the maximal effect.

T1 sequence (Q9P1W9 whole entry): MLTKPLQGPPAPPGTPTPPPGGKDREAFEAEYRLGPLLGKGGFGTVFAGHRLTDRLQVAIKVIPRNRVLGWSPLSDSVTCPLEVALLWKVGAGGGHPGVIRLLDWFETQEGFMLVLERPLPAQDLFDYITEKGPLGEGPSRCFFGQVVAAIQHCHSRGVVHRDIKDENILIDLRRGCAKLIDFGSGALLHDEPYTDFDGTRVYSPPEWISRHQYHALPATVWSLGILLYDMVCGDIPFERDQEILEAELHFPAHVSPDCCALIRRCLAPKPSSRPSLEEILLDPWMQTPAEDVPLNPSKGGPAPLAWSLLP
Chain of PLK1 (P53350 whole entry, species assumed): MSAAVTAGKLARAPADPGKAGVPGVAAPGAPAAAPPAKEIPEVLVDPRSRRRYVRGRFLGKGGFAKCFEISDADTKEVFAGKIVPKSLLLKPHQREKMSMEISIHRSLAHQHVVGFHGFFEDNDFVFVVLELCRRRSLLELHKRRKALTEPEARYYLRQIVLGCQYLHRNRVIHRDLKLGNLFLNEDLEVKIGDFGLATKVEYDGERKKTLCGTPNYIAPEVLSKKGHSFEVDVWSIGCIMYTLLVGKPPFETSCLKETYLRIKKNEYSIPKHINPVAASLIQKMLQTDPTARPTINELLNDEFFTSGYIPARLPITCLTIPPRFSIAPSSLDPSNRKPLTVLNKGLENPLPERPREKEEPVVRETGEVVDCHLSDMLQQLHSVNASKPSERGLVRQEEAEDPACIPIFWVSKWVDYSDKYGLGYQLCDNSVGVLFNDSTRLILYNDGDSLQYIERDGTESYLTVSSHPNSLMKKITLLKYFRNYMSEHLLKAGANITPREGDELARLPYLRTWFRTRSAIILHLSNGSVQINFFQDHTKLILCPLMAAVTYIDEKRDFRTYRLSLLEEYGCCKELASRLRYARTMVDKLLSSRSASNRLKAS
T2 sequence (P11309 whole entry): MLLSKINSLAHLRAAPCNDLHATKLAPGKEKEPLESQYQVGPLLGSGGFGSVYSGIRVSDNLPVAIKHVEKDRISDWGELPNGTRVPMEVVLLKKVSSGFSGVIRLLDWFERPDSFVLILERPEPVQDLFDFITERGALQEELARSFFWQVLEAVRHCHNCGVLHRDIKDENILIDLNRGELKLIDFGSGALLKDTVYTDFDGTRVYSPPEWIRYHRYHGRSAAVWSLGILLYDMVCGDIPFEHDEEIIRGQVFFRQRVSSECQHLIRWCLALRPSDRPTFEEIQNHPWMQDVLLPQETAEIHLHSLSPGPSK
Chain of CDK1 (P06493 whole entry, species assumed): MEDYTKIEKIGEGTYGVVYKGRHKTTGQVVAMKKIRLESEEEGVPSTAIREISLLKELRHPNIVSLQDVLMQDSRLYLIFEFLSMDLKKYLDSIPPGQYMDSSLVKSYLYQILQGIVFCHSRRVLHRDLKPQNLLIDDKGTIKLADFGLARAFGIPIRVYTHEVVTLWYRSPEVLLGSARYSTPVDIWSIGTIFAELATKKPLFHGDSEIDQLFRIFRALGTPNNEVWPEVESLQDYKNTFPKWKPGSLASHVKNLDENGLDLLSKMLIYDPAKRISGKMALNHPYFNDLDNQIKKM
Chain of CDK1 (P14635 whole entry partner, species assumed): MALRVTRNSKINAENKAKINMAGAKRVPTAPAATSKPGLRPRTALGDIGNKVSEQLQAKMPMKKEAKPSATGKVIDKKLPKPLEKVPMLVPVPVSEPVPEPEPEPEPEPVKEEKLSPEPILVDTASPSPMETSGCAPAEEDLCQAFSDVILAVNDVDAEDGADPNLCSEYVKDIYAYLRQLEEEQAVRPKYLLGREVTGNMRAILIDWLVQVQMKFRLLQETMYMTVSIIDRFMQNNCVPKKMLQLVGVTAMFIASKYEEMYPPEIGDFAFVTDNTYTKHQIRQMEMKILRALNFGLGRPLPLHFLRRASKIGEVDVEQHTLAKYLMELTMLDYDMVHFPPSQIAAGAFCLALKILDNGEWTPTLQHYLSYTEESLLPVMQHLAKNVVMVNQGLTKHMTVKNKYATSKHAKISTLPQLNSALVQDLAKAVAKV

`CN(C)CCNC(=O)c1ccc(-c2c(F)cnc3[nH]c4cnc(-c5cccnc5)cc4c23)cc1` [Example 9, N-[2-(dimethylamino)ethyl]-4-[3-fluoro-6-(pyridin-3-yl)-9H-pyrrolo-[2,3-b:5,4-c′]dipyridin-4-yl]benzamide]: the IC50 with phosphoBAD (DND-41) was 1000 to 5000 nM; against PLK1 it was 100 to 1000 nM; at Pim-2, less than 100 nM; with phosphoBAD (JEKO), 100 to 1000 nM; against CDK1, 100 to 1000 nM; on Pim-1, less than 100 nM. Also, on Pim-3, the concentration for half-maximal inhibition (IC50) was less than 100 nM. Moreover, the EC50 is less than 100 nM in the assay with EOL-1, 100 to 1000 nM with MOLM-13 and less than 100 nM in the assay on MV4-11.

In the case of `O=C(NC1CC1)c1ccc(-c2c(F)cnc3[nH]c4cnc(-c5cccnc5)cc4c23)cc1` [Example 11, N-cyclopropyl-4-[3-fluoro-6-(pyridin-3-yl)-9H-pyrrolo[2,3-b:5,4-c′]dipyridin-4-yl]benzamide], the IC50 is 1000 to 5000 nM at Pim-2, 100 to 1000 nM in the assay with phosphoBAD (JEKO), less than 100 nM at Pim-1 and 100 to 1000 nM at Pim-3.

Regarding `CN1CCC(NC(=O)c2ccc(-c3c(F)cnc4[nH]c5cnc(-c6cccnc6)cc5c34)cc2)CC1` [Example 22, 4-[3-fluoro-6-(pyridin-3-yl)-9H-pyrrolo[2,3-b:5,4-c′]dipyridin-4-yl]-N-(1-methylpiperidin-4-yl)benzamide], the EC50 with EOL-1 and in the assay with MV4-11 was 100 to 1000 nM each time. The IC50 against PLK1 is 1000 to 5000 nM; on Pim-2, 100 to 1000 nM; in the assay with phosphoBAD (JEKO), 1000 to 5000 nM; at CDK1, 1000 to 5000 nM; on Pim-1 it was less than 100 nM; at Pim-3, less than 100 nM.

Consider `CN(C)CCN(C)C(=O)c1ccc(-c2c(F)cnc3[nH]c4cnc(-c5cccnc5)cc4c23)cc1` [Example 23, N-[2-(dimethylamino)ethyl]-4-[3-fluoro-6-(pyridin-3-yl)-9H-pyrrolo[2,3-b:5,4-c′]dipyridin-4-yl]-N-methylbenzamide], for which the IC50 with phosphoBAD (DND-41) was 100 to 1000 nM; at PLK1, 100 to 1000 nM; at Pim-2 it was less than 100 nM; in the assay with phosphoBAD (JEKO), 100 to 1000 nM; against CDK1, 1000 to 5000 nM; at Pim-1, less than 100 nM. Moreover, on Pim-3, the IC50 was less than 100 nM.

On to `CN1CCN(CCNC(=O)c2ccc(-c3c(F)cnc4[nH]c5cnc(-c6cccnc6)cc5c34)cc2)CC1` [Example 24, 4-[3-fluoro-6-(pyridin-3-yl)-9H-pyrrolo[2,3-b:5,4-c′]dipyridin-4-yl]-N-[2-(4-methylpiperazin-1-yl)ethyl]benzamide], for which the IC50 in the assay with phosphoBAD (DND-41) was 1000 to 5000 nM; against PLK1, 1000 to 5000 nM; at Pim-2, 1000 to 5000 nM; in the assay on phosphoBAD (JEKO) it was 100 to 1000 nM; against CDK1, 1000 to 5000 nM; at Pim-1 it was less than 100 nM. In addition, the IC50 on Pim-3 was less than 100 nM. Besides, the concentration giving a half-maximal response (EC50) in the assay with EOL-1 and in the assay on MV4-11 was 100 to 1000 nM in each case.

Take `CN1CCC(CNC(=O)c2ccc(-c3c(F)cnc4[nH]c5cnc(-c6cccnc6)cc5c34)cc2)CC1` [Example 25, 4-[3-fluoro-6-(pyridin-3-yl)-9H-pyrrolo[2,3-b:5,4-c′]dipyridin-4-yl]-N-[(1-methylpiperidin-4-yl)methyl]benzamide]: the IC50 with phosphoBAD (DND-41) was 100 to 1000 nM; against PLK1, 1000 to 5000 nM; on Pim-2 it was 1000 to 5000 nM; with phosphoBAD (JEKO) it was 1000 to 5000 nM; on CDK1, 1000 to 5000 nM; at Pim-1, less than 100 nM. Further, the IC50 on Pim-3 is less than 100 nM. Also, the EC50 in the assay on EOL-1 and with MV4-11 was 100 to 1000 nM in each case.

With `CC(C)(N)CNC(=O)c1ccc(-c2c(F)cnc3[nH]c4cnc(-c5cccnc5)cc4c23)cc1` [Example 26, N-(2-amino-2-methylpropyl)-4-[3-fluoro-6-(pyridin-3-yl)-9H-pyrrolo[2,3-b:5,4-c′]dipyridin-4-yl]benzamide], the IC50 against PLK1 is 100 to 1000 nM; at Pim-2, less than 100 nM; with phosphoBAD (JEKO), 1000 to 5000 nM; at CDK1, 1000 to 5000 nM; at Pim-1, less than 100 nM; at Pim-3, less than 100 nM.

`CN(C)CCNC(=O)c1ccc(-c2ccnc3[nH]c4cnc(-c5cnn(C)c5)cc4c23)cc1` [Example 44]: the IC50 in the assay on phosphoBAD (DND-41) is 100 to 1000 nM; at PLK1, 100 to 1000 nM; on Pim-2, less than 100 nM; with phosphoBAD (JEKO), 100 to 1000 nM; at CDK1, 100 to 1000 nM; at Pim-1, less than 100 nM. The IC50 on Pim-3 is less than 100 nM. Also, the EC50 in the assay with EOL-1 and in the assay on MV4-11 was less than 100 nM in each case.
